Here are results for 3 molecules from ChEMBL document CHEMBL5724914, “Linking interpersonal differences in gut microbiota composition and drug biotransformation activity” (2024).

SMILES strings stand for the structures.

For series [1] the following is noted: human gut metagenome, 24 h, 2 µM.
Series [2] in a line: The drug is tested on WLS-240 corresponding to human gut metagenome with ENA study accession number: PRJEB37062 and ENA sample accession number: ERS12561773 for biotransformation under anaerobic condition. The drug concentrations were measured over 9 timepoints collected between 0 and 24 hours of incubation by liquid-chromatography-coupled mass spectrometry (LC–MS). Conditions: 2 µM.

For series [3] the following is noted: human gut metagenome, 24 h, 2 µM. This is another data set of the same source.
A short description of series [4]: The drug is tested on Z-024 corresponding to pig gut metagenome with ENA study accession number: PRJEB37062 and ENA sample accession number: ERS12561823 for biotransformation under anaerobic condition. The drug concentrations were measured over 9 timepoints collected between 0 and 24 hours of incubation by liquid-chromatography-coupled mass spectrometry (LC–MS). The conditions noted are these: 2 µM.

A short description of series [5]: The drug is tested on WLS-077 corresponding to human gut metagenome with ENA study accession number: PRJEB37062 and ENA sample accession number: ERS12561750 for biotransformation under anaerobic condition. The drug concentrations were measured over 9 timepoints collected between 0 and 24 hours of incubation by liquid-chromatography-coupled mass spectrometry (LC–MS). The conditions noted are these: 2 µM.

Series [6] in a line: The drug is tested on WLS-038 corresponding to human gut metagenome with ENA study accession number: PRJEB37062 and ENA sample accession number: ERS12561745 for biotransformation under anaerobic condition. The drug concentrations were measured over 9 timepoints collected between 0 and 24 hours of incubation by liquid-chromatography-coupled mass spectrometry (LC–MS). The conditions noted are these: 2 µM.

A short description of series [7]: The drug is tested on WLS-086 corresponding to human gut metagenome with ENA study accession number: PRJEB37062 and ENA sample accession number: ERS12561752 for biotransformation under anaerobic condition. The drug concentrations were measured over 9 timepoints collected between 0 and 24 hours of incubation by liquid-chromatography-coupled mass spectrometry (LC–MS). Conditions: 2 µM.

The conditions of series [8]: human gut metagenome, 24 h, 2 µM. The source holds these as a separate data set.
Series [9] can be described thus: The drug is tested on WLS-350 corresponding to human gut metagenome with ENA study accession number: PRJEB37062 and ENA sample accession number: ERS12561789 for biotransformation under anaerobic condition. The drug concentrations were measured over 9 timepoints collected between 0 and 24 hours of incubation by liquid-chromatography-coupled mass spectrometry (LC–MS). Conditions: 2 µM.

For series [10] the following is noted: human gut metagenome, 24 h, 2 µM. The source holds these as a separate data set.
Series [11] is described as follows: The drug is tested on WLS-039 corresponding to human gut metagenome with ENA study accession number: PRJEB37062 and ENA sample accession number: ERS12561746 for biotransformation under anaerobic condition. The drug concentrations were measured over 9 timepoints collected between 0 and 24 hours of incubation by liquid-chromatography-coupled mass spectrometry (LC–MS). The conditions noted are these: 2 µM.

The nature of series [12]: The drug is tested on Z-025 corresponding to rabbit gut metagenome with ENA study accession number: PRJEB37062 and ENA sample accession number: ERS12561824 for biotransformation under anaerobic condition. The drug concentrations were measured over 9 timepoints collected between 0 and 24 hours of incubation by liquid-chromatography-coupled mass spectrometry (LC–MS). The conditions noted are these: 2 µM.

The conditions of series [13]: human gut metagenome, 24 h, 2 µM. The source holds these as a separate data set.
For series [14] the following is noted: human gut metagenome, 24 h, 2 µM. This is another data set of the same source.
A short description of series [15]: The drug is tested on Z-022 corresponding to mouse gut metagenome with ENA study accession number: PRJEB37062 and ENA sample accession number: ERS12561821 for biotransformation under anaerobic condition. The drug concentrations were measured over 9 timepoints collected between 0 and 24 hours of incubation by liquid-chromatography-coupled mass spectrometry (LC–MS). The conditions noted are these: 2 µM.

Series [16] can be described thus: The drug is tested on Z-021 corresponding to metagenome with ENA study accession number: PRJEB37062 and ENA sample accession number: ERS12561820 for biotransformation under anaerobic condition. The drug concentrations were measured over 9 timepoints collected between 0 and 24 hours of incubation by liquid-chromatography-coupled mass spectrometry (LC–MS). Conditions: 2 µM.

The conditions of series [17]: human gut metagenome, 24 h, 2 µM. The source holds these as a separate data set.
For series [18] the following is noted: human gut metagenome, 24 h, 2 µM. The source holds these as a separate data set.
A short description of series [19]: The drug is tested on Z-003 corresponding to pig gut metagenome with ENA study accession number: PRJEB37062 and ENA sample accession number: ERS12561803 for biotransformation under anaerobic condition. The drug concentrations were measured over 9 timepoints collected between 0 and 24 hours of incubation by liquid-chromatography-coupled mass spectrometry (LC–MS). Conditions: 2 µM.

The nature of series [20]: The drug is tested on WLS-069 corresponding to human gut metagenome with ENA study accession number: PRJEB37062 and ENA sample accession number: ERS12561748 for biotransformation under anaerobic condition. The drug concentrations were measured over 9 timepoints collected between 0 and 24 hours of incubation by liquid-chromatography-coupled mass spectrometry (LC–MS). Conditions: 2 µM.
Note: call rule not given here.

For the molecule `O=c1n(CCCN2CCN(c3cccc(Cl)c3)CC2)nc2ccccn12` [TRAZODONE], the “Bacterial Biotransformation” value in series [1] was “Compound metabolized”; in series [2] it was “Compound metabolized”; in series [3] it was “Compound metabolized”; in series [4], “Compound metabolized”; in series [5] it was “Compound NOT metabolized”; in series [6] it was “Compound NOT metabolized”. The “Bacterial Biotransformation” value in series [7] is “Compound metabolized”; in [8], “Compound metabolized”; in series [9] it was “Compound metabolized”; in series [10] it was “Compound metabolized”; in series [11], “Compound NOT metabolized”; in series [12], “Compound NOT metabolized”. The “Bacterial Biotransformation” value in series [13] is given as “Compound NOT metabolized”; in series [14], “Compound NOT metabolized”; in series [15] it was “Compound metabolized”; in series [16] it was “Compound NOT metabolized”; in series [17], “Compound metabolized”; in series [18], “Compound metabolized”. Further, the “Bacterial Biotransformation” value in [19] and in [20] was “Compound metabolized” throughout.

In the case of `OC(CCN1CCCCC1)(c1ccccc1)C1CCCCC1` (stereo not given) [TRIHEXYPHENIDYL], the “Bacterial Biotransformation” value in series [1] is recorded as “Compound metabolized”; in series [2] it was “Compound metabolized”; in series [3] it was “Compound metabolized”; in [4], “Compound metabolized”; in series [5] it was “Compound metabolized”; in [6], “Compound NOT metabolized”. In addition, the “Bacterial Biotransformation” value in series [7] is on record as “Compound metabolized”; in [8] it was “Compound metabolized”; in series [9], “Compound NOT metabolized”; in series [10], “Compound metabolized”; in series [11], “Compound metabolized”; in series [12], “Compound NOT metabolized”. The “Bacterial Biotransformation” value in series [13] is reported as “Compound NOT metabolized”; in series [14] it was “Compound NOT metabolized”; in series [15] it was “Compound metabolized”; in series [16], “Compound metabolized”; in series [17], “Compound metabolized”; in series [18], “Compound metabolized”. In addition, the “Bacterial Biotransformation” value in series [19] and in series [20] was “Compound metabolized” in each case.

For the molecule `Cc1ccc(/C(=C\CN2CCCC2)c2ccccn2)cc1` [TRIPROLIDINE], the “Bacterial Biotransformation” value in [1], in series [2], in series [3], in series [4], in series [5] and in [6] was “Compound NOT metabolized” in each case. Also, the “Bacterial Biotransformation” value in series [7], in series [8], in [9], in series [10], in series [11] and in [12] was “Compound NOT metabolized” each time. In addition, the “Bacterial Biotransformation” value is on record as “Compound NOT metabolized” in series [13]; “Compound NOT metabolized” in series [14]; “Compound NOT metabolized” in series [15]; “Compound NOT metabolized” in series [16]; “Compound metabolized” in series [17]; “Compound NOT metabolized” in series [18]. Also, the figures for the “Bacterial Biotransformation” value in [19] and in series [20] were “Compound metabolized” and “Compound NOT metabolized”, respectively.
